# Source: ChEMBL document CHEMBL1201862, “PubChem BioAssay data set” (2004)
# Active and inactive are the calls of the source.
# Experiments:
# cells [1] = type: functional, cell-based
# cells [2] = type: functional, cell-based; remark: listed apart in the source
# [3] = target: T1, Trace amine-associated receptor 1 (Homo sapiens, UniProt Q96RJ0); assay: Fluorescence-based cell-based high throughput dose response assay to identify agonists of the human trace amine associated receptor 1 (TAAR1).; type: functional
# [4] = target: T1, Trace amine-associated receptor 1; assay: Counterscreen for agonists of the human trace amine associated receptor 1 (hTAAR1): Fluorescence-based cell-based high throughput dose response assay to identify hTAAR1 agonist that also desensitize TAAR1 receptor response.; type: functional
# [5] = HGIII-sPLA2 enzyme inhibition potency – biochemical, QFRET, IC50, dose response (AID 743457);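 note: green fluorescence rise as the enzyme cleaves BODIPY PC-A2 in liposomes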
# [6] = cytotoxicity in MITF-independent A375 cells – cell-based, CellTiter-Glo luminescence, dry powder, set 4, counter-screen for MITF inhibitor project, dose response (AID 624364); type: functional; settings: A-375;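 note: A375 melanoma cells are MITF independent so this is a counter screen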
# [7] = viability loss in MITF-independent A375 cells – cell-based, CellTiter-Glo luminescence, dry powder, set 2, counter-screen for MITF inhibitor project, dose response (AID 624489); type: functional; settings: A-375;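 note: actives are compounds lowering A375 viability meaning general cytotoxicity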
# [8] = target: Potassium channel subfamily K member 3 (Homo sapiens, UniProt O14649); assay: inhibition of human KCNK3 channel flux – CHO cells, FluxOR thallium flux, SAR follow-up (AID 652212); type: functional
# [9] = target: Potassium channel subfamily K member 3 (Rattus norvegicus, UniProt O54912); assay: SAR analysis for the identification of selective inhibitors of the two-pore domain potassium channel TASK1(KCNK3):Automated Electrophysiology.; type: functional
# [10] = target: T2, Nuclear receptor subfamily 0 group B member 1 (Homo sapiens, UniProt P51843); assay: Luminescence-based cell-based high throughput dose response assay for inhibitors of the orphan nuclear receptor subfamily 0, group B, member 1 (DAX1; NR0B1). [Related pubchem assays (depositor defined):AID504766, AID504790]; type: functional
# T2 sequence (P51843 whole entry): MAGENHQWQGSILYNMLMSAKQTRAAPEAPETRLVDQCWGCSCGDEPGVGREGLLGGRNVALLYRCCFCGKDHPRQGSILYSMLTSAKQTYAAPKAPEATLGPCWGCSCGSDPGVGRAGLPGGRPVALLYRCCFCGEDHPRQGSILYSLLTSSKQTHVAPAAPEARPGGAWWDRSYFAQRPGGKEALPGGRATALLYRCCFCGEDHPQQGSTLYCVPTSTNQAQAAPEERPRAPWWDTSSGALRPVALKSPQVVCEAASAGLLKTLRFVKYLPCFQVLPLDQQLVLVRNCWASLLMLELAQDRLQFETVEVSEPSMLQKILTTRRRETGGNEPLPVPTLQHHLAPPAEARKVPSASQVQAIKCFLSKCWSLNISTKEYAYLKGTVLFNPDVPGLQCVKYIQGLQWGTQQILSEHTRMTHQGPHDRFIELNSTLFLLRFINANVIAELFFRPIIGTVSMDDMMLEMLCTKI
# [11] = viability loss in human hepatoma cells – cell-based, CellTiter-Glo luminescence, cherry-pick, set 2, cytotoxicity control, dose response (AID 743395); type: functional
# [12] = target: T2, Nuclear receptor subfamily 0 group B member 1; type: functional, cell-based
# [13] = viability loss in HepG2 hepatoma cells – cell-based, ATP luminescence, cherry-pick, activator set 2, cytotoxicity control, dose response (AID 1053143); type: functional
# [14] = rescue of ΔF508 CFTR function, airway epithelium – human bronchial epithelial cells, plate reader, cherry-pick, two tests, dose response (AID 743267); type: functional, cell-based
# [15] = activation of miR-122 Renilla sensor silencing – cell-based, Huh7 psiCHECK-miR122, Renilla luciferase, cherry-picked, dose response (AID 651956); type: functional;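 note: huh7 hepatoma cells stably carrying a psiCHECK-2 miR-122 sensor plasmid; renilla luciferase signal reporting endogenous miR-122 activity after 48 h compound exposure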
# Major prion protein = Major prion protein (Homo sapiens, UniProt P04156); type: functional, cell-based
# [16] = HPDE-C7 pancreatic duct cell viability loss – fluorescence, HTS (AID 430); type: functional, cell-based; settings: Homo sapiens
# [17] = reduced cellular PGC1a acetyl-lysine signal – cell-based, cherry-picked samples, dose response (AID 720514); type: functional;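 note: potency may reflect raised or lowered acetylation signal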
# [18] = target: Sphingosine 1-phosphate receptor 2 (Homo sapiens, UniProt O95136); assay: Dose Response Cell Based Assay for Antagonists of the S1P2 Receptor. [Related pubchem assays: 856, 736 ]; type: functional
# [19] = viability loss of HPDE-C7K cells – cell-based, fluorescence, HTS, primary screen (AID 431); type: functional; settings: Homo sapiens
# cells [20] = assay: cells
# [21] = general mammalian cell viability loss – inhibitor set, cherry-pick, set 2, cytotoxicity control for miR-122 modulator project, dose response (AID 720697); type: functional, cell-based
# INS1 = assay: INS-1E survival protection against cytokine death – cell-based, luminescence, retest, dose response (AID 449756); type: functional; settings: Rattus norvegicus;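 note: cell death triggered by IL-1 beta plus TNF-alpha plus IFN-gamma mixture; protective hits raise ATP signal compared with cytokine alone wells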
# [22] = target: T3, Heat shock factor protein 1 (Mus musculus, UniProt P38532); assay: decrease of HSF1-responsive luciferase luminescence – cell-based, NIH3T3, dose retest, confirmation (AID 2382); type: functional;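 note: NIH3T3 fibroblasts with HSF1-driven luciferase reporter stressed by proteasome inhibitor MG132; luminescence from HSF1-driven luciferase expression after 8 hours of MG132 stress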
# T3 sequence (P38532 whole entry): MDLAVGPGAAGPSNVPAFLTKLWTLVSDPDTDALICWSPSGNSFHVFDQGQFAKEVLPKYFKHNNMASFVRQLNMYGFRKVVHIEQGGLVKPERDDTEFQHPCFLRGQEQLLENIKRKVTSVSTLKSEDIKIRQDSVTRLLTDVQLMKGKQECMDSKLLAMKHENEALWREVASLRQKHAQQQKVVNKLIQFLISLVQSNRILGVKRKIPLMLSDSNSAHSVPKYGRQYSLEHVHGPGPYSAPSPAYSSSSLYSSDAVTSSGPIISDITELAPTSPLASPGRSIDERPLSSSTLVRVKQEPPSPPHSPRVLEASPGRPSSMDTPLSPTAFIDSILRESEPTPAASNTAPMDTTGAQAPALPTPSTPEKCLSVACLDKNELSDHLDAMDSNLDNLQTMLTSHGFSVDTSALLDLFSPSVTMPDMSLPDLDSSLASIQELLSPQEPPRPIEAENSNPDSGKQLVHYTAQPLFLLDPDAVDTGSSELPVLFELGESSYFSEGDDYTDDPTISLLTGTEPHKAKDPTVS
# [23] = HEK-293T viability loss after treatment – luminescence, T-cell screen hits, cytotoxicity control for TCR NF-kB inhibitor project, dose response (AID 489026); type: functional, cell-based;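 note: cells exposed to compound about 14 hours before the viability readout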
# [24] = target: G2/mitotic-specific cyclin-B1 (Homo sapiens, UniProt P14635); assay: Counterscreen assay for inhibitors of Wee1 degradation: dose response cell-based assay to identify inhibitors of cyclin B degradation. [Related pubchem assays: 1410, 1321 ]; type: functional
# [25] = general mammalian cell viability loss – activator set, cherry-pick, cytotoxicity control for miR-122 modulator project, dose response (AID 720690); type: functional, cell-based;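 note: HEK293T human cells scored for general mammalian cytotoxicity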
# Wee1-like protein kinase = Wee1-like protein kinase (Homo sapiens, UniProt P30291); assay: Dose Response Cell-based Assay for Inhibitors of Wee1 Degradation. [Related pubchem assays: 1410, 1321 ]; type: functional
# [26] = viability loss in A549 lung cancer cells – cell-based, cherry-picks, […], cytotoxicity control, dose response (AID 1053119); type: functional
# [27] = blockers of FN fibrillogenesis by fibroblasts – AH1F cells, Alexa488-FN fluorescence, cherry-picks, dose response (AID 1035475); type: functional, cell-based
# [28] = mouse embryonic fibroblast toxicity – cell-based, plate reader, dry powder, set 2, cytotoxicity control, dose response (AID 652280); type: functional; settings: NIH3T3
# [29] = mouse fibroblast viability loss – cell-based, dry powder samples, cytotoxicity control, dose response (AID 651844); type: functional; settings: NIH3T3
structure (smiles),measurement,setting,value
CN1CCNC(=O)C1CC(=O)NCCc1ccccc1F (configuration not stated),IC50,cells [1],> 29.9 µM (inactive)
same,EC50,cells [2],> 29.9 µM (inactive)
same,EC50,[3],2.49 µM (active)
same,IC50,[4],6.6 µM (active)
Cc1ccc(NC(S)=NNC(=O)CSc2nnc(-c3ccc(Cl)cc3)n2C2CCCCC2)cc1,IC50,[5],> 40.6 µM (inactive)
C=CCNC1=C(N2CCN(C)CC2)C(=O)c2ccccc2C1=O,AC50,[6],34.4 µM (active)
same,AC50,[7],15.9 µM (active)
Cc1cccc(C(=O)Nc2cccc(NC(=O)c3ccncc3)c2)c1,IC50,[8],0.162 µM (active)
same,IC50,[9],2.14 µM (active)
O=C(CCCCCCC(=O)Nc1ccccc1)NO [VORINOSTAT],IC50,[10],> 67.6 µM (inactive)
same,AbsAC35_uM,[11],0.468 µM
same,IC50,[12],0.747 µM (active)
same,AC50,[13],1.75 µM (active)
same,AC50,[14],0.933 µM (active)
O=S(=O)(C/C(=C/CO)S(=O)(=O)c1ccccc1)c1ccccc1,AC50,[15],6.77 µM (active)
same,IC50,Major prion protein,9.14 µM (active)
same,EC50,[16],1.92 µM (active)
same,AC50,[17],3.28 µM (active)
same,IC50,[18],3.07 µM (active)
same,EC50,[19],2.5 µM (active)
same,IC50,cells [20],42.9 µM (inactive)
same,AC50,[21],4.09 µM (active)
same,AC50,INS1,9.58 µM (active)
same,EC50,[22],4.31 µM (active)
same,IC50,[23],67.1 µM (inactive)
same,EC50,[24],> 5.53 µM (active)
same,AC50,[25],4.73 µM (active)
same,EC50,Wee1-like protein kinase,> 5.53 µM (active)
COc1ccc(Cl)cc1NC(=O)CSc1nc(Nc2ccccc2)nc(N2CCOCC2)n1,AC50,[26],> 52 µM (inactive)
same,AC50,[27],64.2 µM (active)
CC(C)N1C[C@H](C)[C@@H](CN(C)Cc2ccc(Oc3ccccc3)cc2)Oc2c(NC(=O)C3CCN(C)CC3)cccc2C1=O,AC50,[28],8.58 µM (active)
same,AC50,[29],8.58 µM (active)
